# Laboratory results reported in patent US11819549B2, “Pharmaceutical formulation comprising ciclesonide” (Boehringer Ingelheim Vetmedica GmbH, priority 2012, dated 2023).
# Assays:
# [1] = taken orally; cited from earlier work
# [2] = chemical stability of ciclesonide in ethanolic formulation as a function of pHapp; format: physicochemical; settings: pHapp range of 4.0 to 4.6, no buffer
# Description: To identify an appropriate pHapp in an ethanolic liquid formulation comprising ciclesonide is a challenge. On the one hand side the stability of ciclesonide is better at higher (more neutral) pH values. However, on the other hand, the pH should not be too high since at low [H^+] values already small amounts of contaminants and decomposition products can cause a relatively large change in pHapp. Furthermore, the use of a buffer for inhalable formulations is undesirable due to the administration of the buffer constituents to the lungs and the possibility of the buffer constituents forming a residue in the inhaler which may affect the spray characteristics of the aerosol. […] The addition of buffer is not necessary to create the advantageous formulation of the present invention.
# [3] = buffering capacity of ciclesonide in the ethanolic solution; format: physicochemical; settings: ethanol/water solution acidified with HCl 0.1 M
# Procedure: More HCl is added than needed to achieve […] in demineralized water alone due to the buffering capacity of ciclesonide.
Compound,potency relative to cortisol [1],potency relative to prednisone [1],chemical stability of ciclesonide [2],buffering capacity [3]
dexamethasone,27 times,7 times,,
"CC(C)C(=O)OCC(=O)C12OC(C3CCCCC3)OC1CC1C3CCC4=CC(=O)C=CC4(C)C3C(O)CC12C [ciclesonide, (11β,16α)-16,17-[[(R)-Cyclohexylmethylene]bis(oxy)]-11-hydroxy-21-(2-methyl-1-oxopropoxy)pregna-1,4-diene-3,20-dione]",,,chemically stable,−3.6 μmol/g ciclesonide
